Where a name gives a salt, the structure may show the parent alone.
What was measured:
Assay in all cases: PDSP primary radioligand binding assay
[1] = target: T1, Dopamine receptor D2 (Homo sapiens, UniProt P14416); conditions: compound 10 μM; for inhibition at 10 µM: n=4, read-out: mean percentage inhibition, Dopamine receptor D2
T1 construct: expressed in transfected cells
Protocol: (§1) Primary and secondary radioligand binding assays are performed. In general, the primary assay is run at very high ligand (compound) concentration as a broad screen to determine whether a compound binds to a particular receptor. If greater than 50% inhibition at 10 μM (high concentration of compound) at a particular receptor is determined, a secondary assay is performed on that receptor. Data from the secondary assay is the binding affinity (Ki value).
(§2) A solution of the compound to be tested is prepared as a 1 mg/ml stock in Standard Binding Buffer or dimethyl sulfoxide (DMSO) according to its solubility. A similar stock of a reference compound (positive control) is also prepared.
(§3) Radioligand (radioligands are presented in Table 39) is diluted to five times the assay concentration (assay concentrations are presented in Table 39) in Standard Binding Buffer. Typically, the assay concentration of radioligand is a value between one half the KD and the KD of a particular radioligand at its target. Aliquots (50 μL) of radioligand are dispensed into the wells of a 96-well plate (see FIG. 11) containing 100 μL of Standard Binding Buffer (Table 40). Then, duplicate 50 μL aliquots of the test and reference compound dilutions are added (see FIG. 11). According to FIG. 11, increasing concentrations (from left to right) of reference or test compound (diluted in buffer) are added (50 μL aliquots, in duplicate) from 5× stock solutions to wells containing 50 μL of 5× radioligand (fixed concentration, prepared in buffer) and 100 μL of buffer. Finally, 50 μL of receptor-containing membrane homogenate (5× suspension in buffer) are added to achieve a final assay volume of 250 μL. Final concentrations of reference or test compound are listed above the columns in FIG. 11.
(§4) Finally, crude membrane fractions of cells expressing recombinant target (prepared from 10 cm plates by harvesting phosphate buffered saline (PBS)-rinsed monolayers, resuspending and lysing in chilled, hypotonic 50 mM Tris-HCl, pH 7.4, centrifuging at 20,000×g, decanting the supernatant and storing at −80° C.; typically, one 10 cm plate provides sufficient material for 24 wells) are resuspended in 3 mL of chilled Standard Binding Buffer and homogenized by several passages through a 26 gauge needle, and then 50 μL are dispensed into each well.
(§5) The 250 μL reactions are incubated at room temperature and shielded from light (to prevent photolysis of light-sensitive ligands) for 1.5 hours, then harvested by rapid filtration onto Whatman GF/B glass fiber filters pre-soaked with 0.3% polyethyleneimine using a 96-well Brandel harvester. Four rapid 500 μL washes are performed with chilled Standard Binding Buffer to reduce non-specific binding. Filters are placed in 6 mL scintillation tubes and allowed to dry overnight. The next day, 4 mL of EcoScint scintillation cocktail (National Diagnostics) are added to each tube. The tubes are capped, labeled, and counted by liquid scintillation counting. For higher throughput assays, bound radioactivity is harvested onto 0.3% polyethyleneimine-treated, 96-well filter mats using a 96-well Filtermate harvester. The filter mats are dried, then scintillant is melted onto the filters, and the radioactivity retained on the filters is counted in a Microbeta scintillation counter.
(§6) Raw data (dpm) representing total radioligand binding (i.e., specific+non-specific binding) are plotted as a function of the logarithm of the molar concentration of the competitor (i.e., test or reference compound). […]

[2] = target: T2, Dopamine receptor D3 (Rattus norvegicus, UniProt P19020); conditions: compound 10 μM; for inhibition at 10 µM: n=4, read-out: mean percentage inhibition, Dopamine receptor D3
T2 construct: expressed in transfected cells
Protocol: as §1, §2, §3, §4, §5, §6

[3] = target: T3, Histamine receptor H2 (Homo sapiens, UniProt P25021); conditions: compound 10 μM; for mean percentage inhibition, Histamine receptor H2: n=4, hydrochloride, 10 µM
T3 construct: expressed in transfected cells
Protocol: as §1, §2, §3, §4, §5, §6

[4] = target: T4, Dopamine receptor D4 (Homo sapiens, UniProt P21917); conditions: compound 10 μM, n=4, read-out: mean percentage inhibition, Dopamine receptor D4
T4 construct: expressed in transfected cells
T4 sequence (P21917 1-419): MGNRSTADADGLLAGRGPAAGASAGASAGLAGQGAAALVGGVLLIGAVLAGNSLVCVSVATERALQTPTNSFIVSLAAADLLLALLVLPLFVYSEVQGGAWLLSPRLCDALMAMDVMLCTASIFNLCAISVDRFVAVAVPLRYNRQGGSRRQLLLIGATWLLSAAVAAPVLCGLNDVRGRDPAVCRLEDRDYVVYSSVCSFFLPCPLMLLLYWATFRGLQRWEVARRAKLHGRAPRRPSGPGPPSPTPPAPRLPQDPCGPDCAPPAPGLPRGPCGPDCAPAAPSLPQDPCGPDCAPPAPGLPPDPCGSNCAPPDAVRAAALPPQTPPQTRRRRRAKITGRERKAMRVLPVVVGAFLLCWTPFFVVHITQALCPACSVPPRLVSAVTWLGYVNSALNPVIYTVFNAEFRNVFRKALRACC
Protocol: as §1, §2, §3, §4, §5, §6

[5] = target: T5, Dopamine D5 (Homo sapiens, UniProt P21918); conditions: compound 10 μM
T5 construct: expressed in transfected cells
Protocol: as §1, §2, §3, §4, §5, §6

T2 sequence (P19020 whole entry): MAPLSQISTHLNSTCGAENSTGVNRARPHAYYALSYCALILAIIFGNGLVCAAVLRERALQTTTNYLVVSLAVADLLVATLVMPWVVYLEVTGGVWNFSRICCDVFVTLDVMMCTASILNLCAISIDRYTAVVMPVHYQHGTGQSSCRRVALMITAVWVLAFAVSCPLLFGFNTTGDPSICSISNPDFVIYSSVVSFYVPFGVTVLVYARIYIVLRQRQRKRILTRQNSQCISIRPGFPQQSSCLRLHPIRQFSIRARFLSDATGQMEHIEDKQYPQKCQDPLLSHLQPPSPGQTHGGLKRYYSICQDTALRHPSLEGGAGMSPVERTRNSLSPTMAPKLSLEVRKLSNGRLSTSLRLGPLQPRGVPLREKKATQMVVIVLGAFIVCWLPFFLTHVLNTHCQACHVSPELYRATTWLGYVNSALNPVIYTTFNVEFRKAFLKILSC
T1 sequence (P14416 whole entry): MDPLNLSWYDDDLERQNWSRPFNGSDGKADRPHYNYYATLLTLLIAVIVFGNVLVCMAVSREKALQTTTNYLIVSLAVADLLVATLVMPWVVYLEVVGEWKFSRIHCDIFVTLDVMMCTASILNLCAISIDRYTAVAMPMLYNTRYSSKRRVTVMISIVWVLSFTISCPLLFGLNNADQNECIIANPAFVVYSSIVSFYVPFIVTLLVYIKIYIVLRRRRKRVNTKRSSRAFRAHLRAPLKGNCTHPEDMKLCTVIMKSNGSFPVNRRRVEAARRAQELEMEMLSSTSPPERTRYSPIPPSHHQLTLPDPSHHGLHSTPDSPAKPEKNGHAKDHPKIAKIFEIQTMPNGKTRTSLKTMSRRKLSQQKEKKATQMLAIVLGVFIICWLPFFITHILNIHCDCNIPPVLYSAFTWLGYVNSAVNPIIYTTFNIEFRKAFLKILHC
T3 sequence (P25021 whole entry): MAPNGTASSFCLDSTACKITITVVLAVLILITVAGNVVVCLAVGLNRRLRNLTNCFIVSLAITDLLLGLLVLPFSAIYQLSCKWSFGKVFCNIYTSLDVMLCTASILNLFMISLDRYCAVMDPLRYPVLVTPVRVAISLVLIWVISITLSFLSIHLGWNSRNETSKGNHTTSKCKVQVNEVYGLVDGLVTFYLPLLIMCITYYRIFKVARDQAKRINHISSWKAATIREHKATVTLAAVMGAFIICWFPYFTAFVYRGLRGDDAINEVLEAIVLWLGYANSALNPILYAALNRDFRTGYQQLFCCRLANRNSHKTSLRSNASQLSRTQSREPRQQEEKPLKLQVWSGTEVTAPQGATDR
T5 sequence (P21918 whole entry): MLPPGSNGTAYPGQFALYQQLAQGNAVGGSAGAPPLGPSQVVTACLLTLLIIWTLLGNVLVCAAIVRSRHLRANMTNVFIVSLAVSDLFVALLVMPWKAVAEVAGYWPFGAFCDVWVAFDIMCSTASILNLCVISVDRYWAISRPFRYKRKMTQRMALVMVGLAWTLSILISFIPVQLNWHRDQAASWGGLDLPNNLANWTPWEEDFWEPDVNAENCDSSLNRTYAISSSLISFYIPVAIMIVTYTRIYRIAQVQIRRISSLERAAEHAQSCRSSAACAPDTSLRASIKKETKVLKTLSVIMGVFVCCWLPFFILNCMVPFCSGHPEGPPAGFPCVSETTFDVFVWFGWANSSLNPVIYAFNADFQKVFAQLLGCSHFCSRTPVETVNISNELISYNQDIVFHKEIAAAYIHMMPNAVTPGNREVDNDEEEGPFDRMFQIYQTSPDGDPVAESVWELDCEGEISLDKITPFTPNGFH

mean percentage inhibition, Dopamine receptor D3 ([2]; n=4, hydrochloride, 10 µM) [%] | inhibition at 10 µM ([3]; n=4, read-out: mean percentage inhibition, Histamine receptor H2) [%] | SMILES | mean percentage inhibition, Dopamine receptor D2 ([1]; n=4, hydrochloride, 10 µM) [%] | inhibition at 10 µM [1] [%] | inhibition at 10 µM [2] [%] | mean percentage inhibition, Histamine receptor H2 [3] [%] | inhibition at 10 µM [4] [%] | binding at 10 μM, Dopamine D5 [5] [%]
– | – | CCCOc1cc2c(cn1)[nH]c1cnccc12 [Compound 4, 3-Propoxy pyridino[4′,3′-4,5]pyrrolo[2,3-c]pyridine hydrochloride] | 50 | > 50 | 24.1 | 26.8 | -18.1 | < 50
31.8 | < 50 | CCCOc1cc2c(cn1)[nH]c1ccncc12 [Compound 2, 8-Propoxypyridino[4′,3′-5,4]pyrrolo[3,2-c]pyridine hydrochloride] | – | > 50 | < 50 | 31.4 | > 50 | < 50

— patent US8268854B2, “Aza-beta-carbolines and methods of using same” (The UWM Research Foundation, Inc., priority 2008, dated 2012)
